In test [1] the target is T1, Orexin/Hypocretin receptor type 1 (Homo sapiens) (UniProt O43613).
T1 sequence (whole entry): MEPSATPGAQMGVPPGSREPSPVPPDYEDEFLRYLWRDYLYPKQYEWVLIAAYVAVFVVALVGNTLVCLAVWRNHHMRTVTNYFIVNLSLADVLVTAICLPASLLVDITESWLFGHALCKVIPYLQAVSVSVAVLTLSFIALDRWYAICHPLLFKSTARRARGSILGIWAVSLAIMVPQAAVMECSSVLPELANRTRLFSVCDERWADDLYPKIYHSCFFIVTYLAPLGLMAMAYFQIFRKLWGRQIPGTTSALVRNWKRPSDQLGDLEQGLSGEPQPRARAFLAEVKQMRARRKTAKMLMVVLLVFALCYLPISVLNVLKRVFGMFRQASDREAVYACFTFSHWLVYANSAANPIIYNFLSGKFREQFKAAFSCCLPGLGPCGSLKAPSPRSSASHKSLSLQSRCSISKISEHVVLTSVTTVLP
Put plainly: (§1) Antagonist activity at human OX1R expressed in CHOK1 cells assessed as inhibition of orexin A-induced intracellular Ca2+ release preincubated for 15 mins followed by orexin A addition by Fura 2-AM dye based fluorescence assay. Format: functional, cell-based.

The target in test [2] is T2, Orexin/Hypocretin receptor type 1 (Homo sapiens, UniProt O43613).
T2 sequence (O43613 whole entry): T1 sequence (whole entry)
Described as §1. Format: functional, cell-based.

A further test deals with T3, Orexin receptor type 2 (Homo sapiens, UniProt O43614).
T3 sequence (O43614 whole entry): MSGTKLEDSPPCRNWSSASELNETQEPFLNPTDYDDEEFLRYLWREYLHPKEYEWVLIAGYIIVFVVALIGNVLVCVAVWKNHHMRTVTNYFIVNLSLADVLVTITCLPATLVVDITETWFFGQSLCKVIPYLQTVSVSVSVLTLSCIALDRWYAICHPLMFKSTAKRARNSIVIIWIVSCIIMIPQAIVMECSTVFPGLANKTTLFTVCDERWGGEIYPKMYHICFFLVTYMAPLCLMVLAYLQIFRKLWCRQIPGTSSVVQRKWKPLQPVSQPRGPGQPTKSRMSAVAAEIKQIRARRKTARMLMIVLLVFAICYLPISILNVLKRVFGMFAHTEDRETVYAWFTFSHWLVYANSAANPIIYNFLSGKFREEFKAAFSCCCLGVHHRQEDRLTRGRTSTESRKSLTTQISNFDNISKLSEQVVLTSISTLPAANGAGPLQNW
Description: Antagonist activity at human OX2R expressed in CHOK1 cells assessed as inhibition of orexin A-induced intracellular Ca2+ release preincubated for 15 mins followed by orexin A addition by Fura 2-AM dye based fluorescence assay. Format: functional, cell-based.

A further test is filed under the species Homo sapiens. Description: Selectivity ratio of Ki for human OX2R to Ki for human OX1R.

SMILES strings stand for the structures. Calls of active or inactive are those of the source. The calls are words filed in the database; no cut-off is given here.

Turning to `CN(C(=O)/C=C/c1ccoc1)[C@@H]1CC[C@@]2(O)[C@H]3Cc4ccc(OCc5ccccc5)c5c4[C@@]2(CCN3S(=O)(=O)c2ccccc2)[C@H]1O5`, the inhibition result in test [1] is “inactive”.

For `CN(C(=O)/C=C/c1ccoc1)[C@@H]1CC[C@@]2(O)[C@H]3Cc4cccc5c4[C@@]2(CCN3S(=O)(=O)c2ccccc2)[C@H]1O5`, the concentration for half-maximal inhibition (IC50) (usually the midpoint of a concentration-inhibition curve) in test [2] was 1910 nM; on Orexin receptor type 2, at least 10000 nM.

As for `COc1ccc2c3c1O[C@H]1[C@@H](N(C)C(=O)/C=C/c4ccoc4)CC[C@@]4(O)[C@@H](C2)N(S(=O)(=O)c2ccccc2)CC[C@]314`, the Ki (commonly the dissociation constant of the complex between target and ligand, obtained from inhibition or displacement) in test [2] worked out at 849 nM. The IC50 on Orexin receptor type 2 is above 10000 nM.

Take `COc1ccc2c(c1)[C@]13CCN(S(=O)(=O)c4ccccc4)[C@H](C2)[C@]1(O)CC[C@H](N(C)C(=O)/C=C/c1ccoc1)C3`: the results for the Ki (in test [2]; at Orexin receptor type 2) were 11.2 nM and 294 nM, respectively. For the same compound, the Ratio Ki in the test listed under Homo sapiens came out at 26.1.

On to `COc1ccc2c(c1)[C@]13CCN(S(=O)(=O)c4ccccc4)[C@H](C2)[C@]1(O)CC[C@@H](N(C)C(=O)/C=C/c1ccoc1)C3`, for which the Ki in test [2] turned out to be 31.6 nM. For the same compound, the IC50 at Orexin receptor type 2 is above 10000 nM.

Consider `COc1ccc2c3c1O[C@H]1[C@H](N(C)C(=O)/C=C/c4ccoc4)CC[C@@]4(O)[C@@H](C2)N(S(=O)(=O)c2ccccc2)CC[C@]314`, for which the IC50 on Orexin receptor type 2 was above 10000 nM.
